Experimental data reported in BindingDB's records for doi:10.1021/acs.jmedchem.5b01939 (University of Messina, 2016).
Each block holds one compound with its values, some of them ahead of it.

How the values were obtained:
Rhodopsin kinase GRK1 [1] = target: T1, Rhodopsin kinase GRK1 (Bos taurus, UniProt P28327); assay: (§1) Inhibition of bovine GRK1 (1 to 535 residues) assessed as decrease in phosphorylation of tubulin after 5 mins by SDS-PAGE analysis
T1 sequence (P28327 whole entry): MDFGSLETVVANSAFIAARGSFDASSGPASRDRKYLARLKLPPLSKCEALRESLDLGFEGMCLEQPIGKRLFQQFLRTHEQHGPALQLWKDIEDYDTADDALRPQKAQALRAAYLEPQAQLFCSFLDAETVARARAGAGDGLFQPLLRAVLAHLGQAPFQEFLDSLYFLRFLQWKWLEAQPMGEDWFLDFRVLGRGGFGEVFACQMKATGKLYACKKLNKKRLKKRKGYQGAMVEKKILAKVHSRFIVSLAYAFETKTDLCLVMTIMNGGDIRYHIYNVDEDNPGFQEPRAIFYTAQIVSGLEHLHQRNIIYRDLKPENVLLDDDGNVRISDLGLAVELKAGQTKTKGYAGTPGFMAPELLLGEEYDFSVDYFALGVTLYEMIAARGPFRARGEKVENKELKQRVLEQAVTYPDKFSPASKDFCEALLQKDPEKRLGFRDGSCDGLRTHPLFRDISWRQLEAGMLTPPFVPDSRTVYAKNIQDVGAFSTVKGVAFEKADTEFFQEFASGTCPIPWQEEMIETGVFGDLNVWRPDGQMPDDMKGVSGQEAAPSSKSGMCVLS

[2] = target: T2, G protein-coupled receptor kinase 5 (Bos taurus, UniProt P43249); assay: (§2) Inhibition of bovine GRK5 assessed as decrease in phosphorylation of tubulin after 5 mins by SDS-PAGE analysis
Rhodopsin kinase GRK1 [3] = target: T1, Rhodopsin kinase GRK1; assay: Inhibition of C-terminal hexahistidine tagged bovine GRK1 (535 residues) assessed as decrease in phosphorylation of light-activated bovine rod outer segments preincubated for 30 mins followed by ATP addition
[4] = target: T2, G protein-coupled receptor kinase 5; assay: Inhibition of C-terminal hexahistidine tagged bovine GRK5 (561 residues) assessed as decrease in phosphorylation of tubulin preincubated for 30 mins followed by ATP addition
Rhodopsin kinase GRK1 [5] = target: T1, Rhodopsin kinase GRK1; assay: ChEBML_1612830; method: as §1
[6] = target: T2, G protein-coupled receptor kinase 5; assay: Inhibition of C-terminal hexahistidine tagged bovine GRK5 (561 residues) assessed as decrease in phosphorylation of light-activated bovine rod outer segments preincubated for 30 mins followed by ATP addition
Rhodopsin kinase GRK1 [7] = target: T1, Rhodopsin kinase GRK1; assay: Inhibition of C-terminal hexahistidine tagged bovine GRK1 (535 residues) assessed as decrease in phosphorylation of tubulin preincubated for 30 mins followed by ATP addition
[8] = target: T2, G protein-coupled receptor kinase 5; assay: ChEBML_1612831; method: as §2

T2 sequence (P43249 whole entry): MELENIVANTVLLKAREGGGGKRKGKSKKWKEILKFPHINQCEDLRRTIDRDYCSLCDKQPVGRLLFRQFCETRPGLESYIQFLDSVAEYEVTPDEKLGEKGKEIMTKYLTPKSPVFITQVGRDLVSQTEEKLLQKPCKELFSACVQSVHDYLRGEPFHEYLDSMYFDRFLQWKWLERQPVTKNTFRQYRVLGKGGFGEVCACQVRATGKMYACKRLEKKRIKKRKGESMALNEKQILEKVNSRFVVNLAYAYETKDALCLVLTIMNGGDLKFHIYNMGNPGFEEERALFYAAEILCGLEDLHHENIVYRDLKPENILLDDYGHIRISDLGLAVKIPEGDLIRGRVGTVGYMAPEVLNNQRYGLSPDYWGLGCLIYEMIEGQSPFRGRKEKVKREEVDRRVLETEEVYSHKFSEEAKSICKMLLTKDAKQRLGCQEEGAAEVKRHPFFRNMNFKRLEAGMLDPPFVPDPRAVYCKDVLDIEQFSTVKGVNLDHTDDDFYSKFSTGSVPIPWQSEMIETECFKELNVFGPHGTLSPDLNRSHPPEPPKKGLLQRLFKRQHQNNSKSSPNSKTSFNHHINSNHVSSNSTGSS

- IC50 (Rhodopsin kinase GRK1 [1]): 794 µM
- IC50 [2]: 63.1 µM
SMILES: CC1=C(C(=O)Nc2ccc3[nH]ncc3c2)C(c2ccc3ccccc3c2)CC(=O)N1 (centres undefined) [N-(1H-indazol-5-yl)-2-methyl-4-(naphthalen-2-yl)-6-oxo-1,4,5,6-tetrahydropyridine-3-carboxamide]

- IC50 [2]: 39.8 µM
SMILES: CC1=C(C(=O)Nc2cc(Cl)c3[nH]ncc3c2)C(c2ccc(C(F)(F)F)cc2)CC(=O)N1 (centres undefined) [N-(7-chloro-1H-indazol-5-yl)-2-methyl-6-oxo-4-[4-(trifluoromethyl)phenyl]-1,4,5,6-tetrahydropyridine-3-carboxamide]

SMILES: Fc1ccc([C@@H]2CCNC[C@H]2COc2ccc3c(c2)OCO3)cc1 [PAROXETINE]
- IC50 (Rhodopsin kinase GRK1 [3]): 316 µM
- IC50 [4]: 126 µM
- IC50 (Rhodopsin kinase GRK1 [5]): 398 µM
- IC50 [6]: 251 µM
- IC50 (Rhodopsin kinase GRK1 [7]): 158 µM

- IC50 [8]: 79.4 µM
SMILES: CC1=C(C(=O)Nc2ccc3[nH]ncc3c2)C(c2ccc(Cl)c(Cl)c2)CC(=O)N1 (centres undefined) [4-(3,4-Dichlorophenyl)-N-1H-indazol-5-yl-2-methyl-6-oxo-1,4,5,6-tetrahydropyridine-3-carboxamide]
